These results are taken from patent US20020165233A1, “Quinoxaline containing medicaments for post exposure prophylaxis of an HIV infection” (priority 1999, published 2002).

For this test, the system named is RT-SHIV. The test is described as follows: env specific cell proliferation assay. Type of test: in vivo, rhesus monkeys. How it is done: Nine rhesus monkeys (male, 2 years old, 2-3 kg) were seronegative for SIV, Simian T cell Leukemia Virus (STLV), B virus and Type D retroviruses. 15 mg/kg body weight of COMPOUND A was subcutaneously administered into animals twice a day (12 h interval) for 28 d. Animals were divided into three groups. All animals were intravenously administered with 100 TCID50 of RT-SHIV The first group consisted of three animals treated with COMPOUND A from 8 h post exposure for 28 d. The second group of animals was treated with COMPOUND A from 24 h post exposure for 28 d. The third group (control) received the solvent that was used to dissolve COMPOUND A (PEG400:glycerol:water=[…]) from 8 h post exposure for 28 d.
Cell Proliferation Assay:
The method used was described previously [J. Virol, 1996: 70, 678-681]. In brief, PBMC was thawed and incubated as described in the CTL assay. Triplicates of PBMC (4×10^5) cells were incubated with autologous B-LCL (1×10^5) that had been infected with SIV env-rvv or control vv and fixed with 1.5% paraformaldehyde in phosphate buffered saline (PBS). ^3H-thymidine was added to 8 h before harvesting. The incorporation of ^3H-thymidine was measured by liquid scintillation counting. The stimulation index was calculated as (mean c.p.m. of PBMC cultured with env-rvv/mean c.p.m. of PBMC cultured with control vv).

For `CC[C@H]1C(=O)Nc2ccc(F)cc2N1C(=O)OC(C)C` [Compound A, (3S)-ethyl-6-fluoro-4-isopropyloxycarbonyl-3,4-dihydroquinoxalin-2(1H)-one], the “proliferative response at week 40” value (all treated animals versus untreated group) is on record as “levels higher than those of the untreated group”. Also, for the setting “all treated animals, 3 weeks through 40 weeks post exposure, versus untreated”, the “env specific proliferative responses” value is “Significantly higher”.
